target: human TRPM8 (Homo sapiens (Human), UniProt Q7Z2W7); assay: TRPM8 inhibition assay (menthol-induced calcium influx, FDSS); assay type: cell-based; settings: HEK293 cells stably expressing human TRPM8; 100 μM menthol; Fura-2AM Ca2+ signal; read-out: TRPM8 Blocking Test (IC50)
Method: The functional activity of compounds was determined by measuring changes in intracellular calcium concentration using a Ca^2+ sensitive fluorescent dye. The changes in fluorescent signal were monitored by the cell imaging technology by Hamamatsu Photonics's Functional Drug Screening System (FDSS). […] HEK293 cells stably expressing human TRPM8 were grown in flasks. On assay day, the culture medium was removed, and cells were washed with phosphate-buffered saline (PBS) and harvested with PBS containing 2 mM ethylenediaminetetraacetic acid, disodium salt (EDTA, 2Na). […] Subsequently, suspended 20,000 to 50,000 cells per well were incubated with test compound (at varying concentrations) in each well for 20 min at 37° C. Changes in intracellular Ca^2+ evoked by 100 μM menthol were measured for 2 min using FDSS. IC50 vales were determined from four-point concentration-response studies. Curves were generated using the average of quadruplicate wells for each data point.

Chain of human TRPM8 (Q7Z2W7 whole entry): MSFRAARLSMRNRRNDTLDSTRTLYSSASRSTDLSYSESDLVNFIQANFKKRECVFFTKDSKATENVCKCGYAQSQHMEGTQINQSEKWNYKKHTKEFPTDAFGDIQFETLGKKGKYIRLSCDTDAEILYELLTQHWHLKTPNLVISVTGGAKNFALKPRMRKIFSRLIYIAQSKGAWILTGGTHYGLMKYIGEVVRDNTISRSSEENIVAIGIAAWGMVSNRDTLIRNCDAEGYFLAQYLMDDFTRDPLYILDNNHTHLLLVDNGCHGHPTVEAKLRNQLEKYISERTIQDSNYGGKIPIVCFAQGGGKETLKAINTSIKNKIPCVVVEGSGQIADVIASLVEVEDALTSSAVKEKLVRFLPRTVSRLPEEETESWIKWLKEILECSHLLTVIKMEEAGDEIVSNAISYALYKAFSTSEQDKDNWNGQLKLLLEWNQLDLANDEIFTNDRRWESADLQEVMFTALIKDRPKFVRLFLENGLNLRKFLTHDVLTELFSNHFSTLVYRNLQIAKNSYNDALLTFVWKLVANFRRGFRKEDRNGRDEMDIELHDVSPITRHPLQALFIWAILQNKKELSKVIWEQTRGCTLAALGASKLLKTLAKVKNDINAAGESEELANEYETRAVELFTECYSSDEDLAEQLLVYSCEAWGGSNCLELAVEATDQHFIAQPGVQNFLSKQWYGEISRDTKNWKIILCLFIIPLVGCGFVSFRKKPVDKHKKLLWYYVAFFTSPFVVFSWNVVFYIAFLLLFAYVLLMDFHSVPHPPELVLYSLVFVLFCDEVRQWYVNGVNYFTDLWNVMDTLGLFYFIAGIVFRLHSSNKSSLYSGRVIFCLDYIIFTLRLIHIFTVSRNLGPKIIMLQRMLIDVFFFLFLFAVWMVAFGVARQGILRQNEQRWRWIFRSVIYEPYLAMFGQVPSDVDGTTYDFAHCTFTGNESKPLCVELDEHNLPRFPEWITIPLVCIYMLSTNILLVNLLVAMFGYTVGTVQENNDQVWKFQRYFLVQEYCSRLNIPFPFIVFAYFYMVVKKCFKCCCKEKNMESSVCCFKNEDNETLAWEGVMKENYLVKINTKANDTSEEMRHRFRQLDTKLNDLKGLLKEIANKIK

SMILES	IC50
Cc1c(N(Cc2ccc3c(c2)CCCC3)S(=O)(=O)c2ccc(C(=O)O)cc2)ncc2ccccc12 [Example 56]	4.7 nM
Cc1c(N(Cc2ccc(CC3CC3)c(F)c2)S(=O)(=O)c2ccc(C(=O)O)cc2)ncc2ccccc12 [Example 170]	2.9 nM
Cc1c(N(Cc2ccc3c(c2)CCC3(C)C)S(=O)(=O)c2ccc(C(=O)O)cc2)ncc2ccccc12 [Example 61]	1.3 nM
CC(C)c1nc(N(Cc2ccc(OC(F)(F)F)cc2)S(=O)(=O)c2ccc(C(=O)O)cc2)c(C(C)C)c2ccccc12 [Example 150]	48 nM
Cc1c(N(Cc2ccc3c(c2)CC(C)(C)O3)S(=O)(=O)c2ccc(C(=O)O)cc2)ncc2ccccc12 [Example 80]	18 nM
Cc1c(N(Cc2ccc(-c3ccccc3)cc2)S(=O)(=O)c2ccc(C(=O)O)cc2)ncc2ccccc12 [Example 27]	26 nM
COCc1nc(N(Cc2ccc(OC(F)(F)F)cc2)S(=O)(=O)c2ccc(C(=O)O)cc2)c(C)c2ccccc12 [Example 218]	21 nM
COc1nc(N(Cc2ccc(OC(F)(F)F)cc2)S(=O)(=O)c2ccc(C(=O)O)cc2)c(C)c2cccc(C)c12 [Example 229]	44 nM
O=C(O)c1ccc(S(=O)(=O)N(Cc2ccc(OC(F)(F)F)cc2)c2ncc(Cl)c3sccc23)cc1 [Example 212]	75 nM
Cc1c(N(Cc2ccc(C(F)(F)C3CC3)c(Cl)c2)S(=O)(=O)c2ccc(C(=O)O)cc2)ncc2ccccc12 [Example 201]	0.6 nM
O=C(O)c1ccc(S(=O)(=O)N(Cc2ccc(OC(F)(F)F)cc2)c2ncc3ccccc3c2C2CC2)cc1 [Example 104, 4-({(4-cyclopropylisoquinolin-3-yl)[4-(trifluoromethoxy)benzyl]amino}sulfonyl)benzoic acid]	0.9 nM
Cc1c(N(Cc2ccc(Oc3ccccc3)cc2)S(=O)(=O)c2ccc(C(=O)O)cc2)ncc2ccccc12 [Example 28]	16 nM
Cc1c(N(Cc2ccc(OC(F)(F)F)cc2)S(=O)(=O)c2ccc(C(=O)O)cc2)ncc2cccc(Cl)c12 [Example 230]	44 nM
Cc1c(N(Cc2ccc(C(F)(F)C3CC3)c(Cl)c2)S(=O)(=O)c2ccc(C(=O)O)cc2)nc(C2CC2)c2ccccc12 [Example 181]	1 nM
Cc1c(N(Cc2ccc(C(F)(F)C3CCC3)cc2)S(=O)(=O)c2ccc(C(=O)O)cc2)ncc2ccccc12 [Example 189]	1.7 nM
NC(=O)c1ccc(S(=O)(=O)N(Cc2ccc(OC(F)(F)F)cc2)c2ncc3ccccc3c2C2CC2)cc1 [Example 241]	8.5 nM
Cc1c(N(Cc2ccc3c(Cl)n[nH]c3c2)S(=O)(=O)c2ccc(C(=O)O)cc2)ncc2ccccc12 [Example 176]	21 nM
Cc1c(N(Cc2ccc(OC(F)(F)F)cc2)S(=O)(=O)c2ccc(C(=O)O)cc2)nc(-c2cccnc2)c2ccccc12 [Example 213]	116 nM
Cc1c(N(Cc2ccc3c(c2)OC(C)(C)C3)S(=O)(=O)c2ccc(C(=O)O)cc2)ncc2ccccc12 [Example 81]	58 nM
Cc1c(N(Cc2ccc(CC3CC3)cc2F)S(=O)(=O)c2ccc(C(=O)O)cc2)ncc2ccccc12 [Example 171]	7.1 nM
Cc1c(N(Cc2ccc(OC(F)(F)F)cc2)S(=O)(=O)c2ccc(C(=O)NC#N)cc2)ncc2ccccc12 [Example 239]	14 nM
Cc1c(N(Cc2ccc3c(Cl)cn(C)c3c2)S(=O)(=O)c2ccc(C(=O)O)cc2)ncc2ccccc12 [Example 122, 4-{[[(3-chloro-1-methyl-1H-indol-6-yl)methyl](4-methylisoquinolin-3-yl)amino]sulfonyl}benzoic acid]	57 nM
O=C(O)c1ccc(S(=O)(=O)N(Cc2ccc(OC(F)(F)F)cc2)c2cc3ccccc3c(C3CC3)n2)cc1 [Example 216]	66 nM
CCCc1nc(N(Cc2ccc(OC(F)(F)F)cc2)S(=O)(=O)c2ccc(C(=O)O)cc2)c(C)c2ccccc12 [Example 97, 4-({(4-methyl-1-propylisoquinolin-3-yl)[4-(trifluoromethoxy)benzyl]amino}sulfonyl)benzoic acid]	11 nM

— US8987445B2, “Sulfonamide compounds having TRPM8 antagonistic activity” (Mitsubishi Tanabe Pharma Corporation, priority 2011, dated 2015)
